From US20060277615A1, “Method of determining xenograft responses” (priority 2003, published 2006)

Key:
[1] = test system: PC3/SFN cells xenografted tumours; assay: Urine hCG in nude mice bearing PC3/SFN-hCG(myc)-Amp reporter xenografts; format: in vivo, congenitally athymic nude mice; details: for increase of normalised urine hCG levels: 48 hours post-dosing vs pre-dose, normalised against urine creatinine, relative to tumour volume; for hCG expression in individual mice compared to vehicle controls: single dose ip (etoposide 40 mg/kg, camptothecin 30 mg/kg), urine 48 hours after drug administration
Procedure: PC3 cells stably transfected with the SFN-hCG(myc)-Amp reporter construct were allowed to grow as solid subcutaneous tumours in congenitally athymic nude mice. The mice were then treated with anticancer drugs that act by inducing G2/M arrest. The drugs chosen for this exemplification were etoposide and camptothecin [12]. […] Wild-type and engineered PC3 tumour cell lines were cultured in RPMI medium supplemented with 10%-15% heat inactivated foetal calf serum, 2 mM L-glutamine, penicillin (50 IU/ml), streptomycin (50 μg/ml). Culture medium for PC3/SFN cells also contained G418 (200 μg/ml). Cultures were incubated in a humidified incubator at 37° C., 5% CO2. Cells were harvested, pooled, centrifuged, and re-suspended in cold medium. This was mixed with an equal volume of cold Matrigel, so that the tumour cell injection solution was a 50:50 mixture of tumour cells/medium and Matrigel for each cell line. Wild type or transfected PC3 cells were injected at 2.5×10^6 per animal. All cell lines were injected in a volume of 100 μl in the right hand flank only. The study consisted of 4 groups in total, each containing 4 animals. One group of mice was implanted with wild type PC3 cells and the remaining 3 groups with engineered cells. Tumour growth was measured twice-weekly following cell implantation until tumours reached 2-5 mm in diameter. Tumour volume (V) was calculated using the formula: V= 4/3π((d1+d2)/4)^3, where d=mean diameter (n=2) Treatment began 5 weeks after tumour implantation. Wild type PC3-xenografted mice remained untreated; all other mice were administered vehicle only (DMSO/saline) or test substances. Single administrations of Camptothecin (30 mg/kg) and Etoposide (40 mg/kg) were administered ip at 10 ml/kg. Additionally, Etoposide (25 mg/kg) was administered to a single group of mice over three consecutive days (ip; 10 ml/kg). Urine samples were harvested before, during and after drug administration. Animals were sacrificed 48 hours after treatment. Urine was analysed for hCG and values normalised against urine creatinine levels.

[2] = test system: PC3 cells containing the SFN-hCG(myc)-Amp reporter construct; assay: hCG induction in PC3 cells transiently transfected with SFN-hCG(myc)-Amp reporter construct (ELISA of medium); format: cell-based, human; details: 50 μM etoposide, 24 hours, vs untreated
Procedure: The SFN-hCG(myc)-Amp reporter construct was transfected into PC3 cells on 6-well tissue culture plates using FuGene reagent (Roche, Lewes, East Sussex). Construct DNA (equivalent to 1 μg/well) was added to FuGene reagent (3 μl/well) and made up to 100 μl/well with serum free medium. The medium in which the cells were growing was aspirated off and replaced with 100 μl of the above mixture per well. For transient transfections, the cells were used for experiments 24 hours after the addition of the construct.

[3] = test system: PC3 cells stably engineered to contain the SFN-hCG(myc)-Amp construct; assay: hCG induction in PC3 cells stably engineered to contain the SFN-hCG(myc)-Amp construct (ELISA of medium); format: cell-based, human; details: stable PC3 cell line, 24 hours
Procedure: To generate a stable cell line, transfection was carried out as above. After 24 hours the cells were trypsinised and transferred to 10 cm tissue culture dishes (one well of a six well plate per 10 cm dish). The cells were allowed to grow on these dishes for 7 days prior to selection. After this time, G418 (20 ng/ml in cell culture medium) was added and the dishes maintained until colonies became visible (approximately one week). Individual colonies were picked using cloning discs soaked in typsin and transferred to individual wells of a 24 well plate. The colonies were then expanded to 6 well plates then T25 flasks and grown up until sufficient cells were present for use in in vitro inductions and xenograft experiments. Following the generation of a stable cell line containing the SFN-hCG(myc)-Amp reporter construct, the cells were further tested using etoposide. The cells were plated out on 6 well plates and allowed to adhere overnight. The next day they were treated with etoposide (50 or 400 μM) or vehicle (dimethyl sulphoxide). After 24 hours in the presence or absence of etoposide, samples of the medium were taken and assayed for hCG by enzyme-linked immunosorbent assay as above.

Compound	increase of normalised urine hCG levels ([1]; single dose 30 mg/kg ip) [fold]	hCG expression in individual mice compared to vehicle controls [1]	amount of hCG secreted into the surrounding medium [2]	amount of hCG secreted at higher concentration ([3]; 400 μM vs 50 μM etoposide)	amount of hCG secreted into the surrounding medium ([3]; etoposide 50 or 400 μM, vs vehicle (dimethyl sulphoxide))	hCG levels at 24 and 48 hours following a third dose ([1]; 3 consecutive doses of 25 mg/kg ip, 24 and 48 hours after third dose)	normalised hCG expression following the first dose ([1]; 3 consecutive doses of 25 mg/kg ip, after first dose)	normalised hCG expression following a second dose ([1]; 3 consecutive doses of 25 mg/kg ip, after second dose)	anti-tumour effect against the PC3/SFN cells ([1]; 3 consecutive doses of 25 mg/kg ip, inferred from the drop in urine hCG)	increase of normalised urine hCG levels ([1]; single dose 40 mg/kg ip) [fold]
CC[C@@]1(O)C(=O)OCc2c1cc1n(c2=O)Cc2cc3ccccc3nc2-1 [camptothecin]	5.29	significantly increased	–	–	–	–	–	–	–	–
COc1cc([C@@H]2c3cc4c(cc3[C@@H](O[C@@H]3O[C@@H]5CO[C@@H](C)O[C@H]5[C@H](O)[C@H]3O)[C@H]3COC(=O)[C@H]23)OCO4)cc(OC)c1O [etoposide]	–	significantly increased	increased	increased	increased	dropped to control levels	sharp increase	remained at this level	exhibited an anti-tumour effect	4.29
